From ChEMBL document CHEMBL4311990, “Synthesis, biological activity, and mechanism of action of new 2-pyrimidinyl hydrazone and N-acylhydrazone derivatives, a potent and new classes of antileishmanial agents” (Eur J Med Chem, 2019)
Activity calls are given as the source filed them. The calls are words filed in the database; no cut-off is given here.

How the values were obtained:
Leishmania amazonensis [1] = experiment: Antileishmanial activity against wild type Leishmania amazonensis IFLA/BR/67/PH8 promastigotes assessed as parasite viability incubated for 72 hrs by MTT assay; format: functional, organism-based; settings: IFLA/BR/67/PH8, 72 h
Leishmania amazonensis [2] = experiment: Antileishmanial activity against GFP-expressing Leishmania amazonensis MHOM/BR/75/Josefa intracellular amastigotes infected in murine peritoneal macrophages incubated for 72 hrs by spectrofluorimetry analysis; format: functional, organism-based
[3] = Selectivity index, ratio of CC50 for BALB/c mouse peritoneal macrophages to IC50 for GFP-expressing Leishmania amazonensis MHOM/BR/75/Josefa intracellular amastigotes infected in murine peritoneal macrophages; format: toxicity, cell-based; settings: read-out: Ratio CC50/IC50
[4] = Cytotoxicity against sodium thioglycolate-stimulated BALB/c mouse peritoneal macrophages measured after 72 hrs; format: cell-based, Peritoneal macrophage
Leishmania amazonensis [5] = experiment: Induction of ROS generation in wild type Leishmania amazonensis IFLA/BR/67/PH8 promastigotes assessed as increase in ROS level by measuring fluorescence intensity at 19.32 uM measured after 24 hrs by H2DCFDA probe based fluorimetry analysis relative to control; format: functional
Leishmania amazonensis [6] = experiment: Induction of mitochondrial membrane depolarization in wild type Leishmania amazonensis IFLA/BR/67/PH8 promastigotes assessed as reduction in fluorescence intensity at 19.32 uM measured after 72 hrs by Mitotracker red staining based spectrofluorimetry analysis relative to control; format: functional; parameters: scale not given: the % may be the effect or the level left
Leishmania amazonensis [7] = experiment: Induction of mitochondrial membrane depolarization in wild type Leishmania amazonensis IFLA/BR/67/PH8 promastigotes assessed as reduction in ratio of […] at 19.32 uM measured after 72 hrs by JC-1 based spectrofluorimetry analysis relative to control; format: functional; parameters: scale not given: the % may be the effect or the level left
Leishmania amazonensis [8] = experiment: Effect on plasma membrane integrity in wild type Leishmania amazonensis IFLA/BR/67/PH8 promastigotes assessed as increase in fluorescence intensity at 9.66 to 19.32 uM measured after 24 hrs by propidium iodide staining based spectrofluorimetry analysis; format: functional, organism-based
Leishmania amazonensis [9] = experiment: Induction of ROS generation in wild type Leishmania amazonensis IFLA/BR/67/PH8 promastigotes assessed as increase in ROS level by measuring fluorescence intensity at 9.66 uM measured after 24 hrs by H2DCFDA probe based fluorimetry analysis relative to control; format: functional
Leishmania amazonensis [10] = experiment: Induction of mitochondrial membrane depolarization in wild type Leishmania amazonensis IFLA/BR/67/PH8 promastigotes assessed as reduction in fluorescence intensity at 24.28 uM measured after 72 hrs by Mitotracker red staining based spectrofluorimetry analysis relative to control; format: functional; parameters: scale not given: the % may be the effect or the level left
Leishmania amazonensis [11] = experiment: Induction of change in plasma membrane integrity in wild type Leishmania amazonensis IFLA/BR/67/PH8 promastigotes assessed as increase in fluorescence intensity at 24.28 uM measured after 24 hrs by propidium iodide staining based spectrofluorimetry analysis relative to control; format: functional
Leishmania amazonensis [12] = experiment: Induction of mitochondrial membrane depolarization in wild type Leishmania amazonensis IFLA/BR/67/PH8 promastigotes assessed as reduction in ratio of […] at 48.56 uM measured after 72 hrs by JC-1 probe based spectrofluorimetry analysis relative to control; format: functional; parameters: scale not given: the % may be the effect or the level left
Leishmania amazonensis [13] = experiment: Induction of mitochondrial membrane depolarization in wild type Leishmania amazonensis IFLA/BR/67/PH8 promastigotes assessed as reduction in ratio of […] at 24.28 uM measured after 72 hrs by JC-1 probe based spectrofluorimetry analysis relative to control; format: functional; parameters: scale not given: the % may be the effect or the level left
Leishmania amazonensis [14] = experiment: Induction of ROS generation in wild type Leishmania amazonensis IFLA/BR/67/PH8 promastigotes assessed as increase in ROS level by measuring fluorescence intensity at 48.56 uM measured after 24 hrs by H2DCFDA probe based fluorimetry analysis relative to control; format: functional
Leishmania amazonensis [15] = experiment: Induction of change in plasma membrane integrity in wild type Leishmania amazonensis IFLA/BR/67/PH8 promastigotes assessed as increase in fluorescence intensity at 48.56 uM measured after 24 hrs by propidium iodide staining based spectrofluorimetry analysis relative to control; format: functional
Leishmania amazonensis [16] = experiment: Induction of ROS generation in wild type Leishmania amazonensis IFLA/BR/67/PH8 promastigotes assessed as increase in ROS level by measuring fluorescence intensity at 24.28 uM measured after 24 hrs by H2DCFDA probe based fluorimetry analysis relative to control; format: functional
Leishmania amazonensis [17] = experiment: Induction of mitochondrial membrane depolarization in wild type Leishmania amazonensis IFLA/BR/67/PH8 promastigotes assessed as reduction in fluorescence intensity at 48.56 uM measured after 72 hrs by Mitotracker red staining based spectrofluorimetry analysis relative to control; format: functional; parameters: scale not given: the % may be the effect or the level left

Structure (SMILES)	IC50 (Leishmania amazonensis [1])	IC50 (Leishmania amazonensis [2])	selectivity ratio [3]	CC50 at 72 h [4]	also measured
Cc1ccc(/C=N/NC(=O)c2ncccn2)c(O)c1	52 µM	35.8 µM	> 4.19	> 150 µM	–
C(=N\Nc1ncccn1)/c1ccccn1	9.66 µM	4.07 µM	6.04	24.6 µM	Activity (Leishmania amazonensis [5]): 88.13%; Activity (Leishmania amazonensis [6]): 30.27%; Activity (Leishmania amazonensis [7]): 10.97%; Activity (Leishmania amazonensis [8]): inactive; Activity (Leishmania amazonensis [9]): 111.1%
O=C(N/N=C/c1ccccn1)c1ncccn1	> 100 µM	> 100 µM	> 1.5	> 150 µM	–
O=C(N/N=C/c1cc(O)ccc1O)c1ncccn1	39.3 µM	73.9 µM	> 2.03	> 150 µM	–
O=C(N/N=C/c1ccc(O)cc1O)c1ncccn1	> 100 µM	> 100 µM	> 1.5	> 150 µM	–
Oc1cccc(/C=N/Nc2ncccn2)c1O	7.95 µM	14.5 µM	> 10.3	> 150 µM	–
Cc1ccc(/C=N/Nc2ncccn2)c(O)c1	56 µM	52.1 µM	1.05	54.8 µM	–
O=C(N/N=C/c1ccc([N+](=O)[O-])s1)c1ncccn1	> 100 µM	8.41 µM	> 17.8	> 150 µM	–
O=C(N/N=C/c1ccc([N+](=O)[O-])o1)c1ncccn1	24.3 µM	10.8 µM	2.68	29.1 µM	Activity (Leishmania amazonensis [10]): 54.94%; Activity (Leishmania amazonensis [11]): 82.9%; Activity (Leishmania amazonensis [12]): 49.75%; Activity (Leishmania amazonensis [13]): 36%; Activity (Leishmania amazonensis [14]): 74.11%; Activity (Leishmania amazonensis [15]): 143%; Activity (Leishmania amazonensis [16]): 47.66%; Activity (Leishmania amazonensis [17]): 55.48%
O=[N+]([O-])c1ccc(O)c(/C=N/Nc2ncccn2)c1	10.5 µM	10.1 µM	2.36	23.8 µM	–
Oc1ccccc1/C=N/Nc1ncccn1	28.1 µM	57.9 µM	1.45	84.2 µM	–
Oc1ccc(O)c(/C=N/Nc2ncccn2)c1	27.5 µM	45.7 µM	1.95	89.4 µM	–
O=C(N/N=C/c1cccc(O)c1O)c1ncccn1	27.4 µM	33.9 µM	> 4.42	> 150 µM	–
CCCCCCCCCCCCCCCCOP(=O)([O-])OCC[N+](C)(C)C [MILTEFOSINE]	–	4.05 µM	32.6	132 µM	–
O=C(N/N=C/c1cc([N+](=O)[O-])ccc1O)c1ncccn1	29 µM	69.1 µM	0.91	63.4 µM	–
O=C(N/N=C/c1ccccc1O)c1ncccn1	90 µM	> 100 µM	> 1.5	> 150 µM	–
